# The source made the active and inactive calls. The rule behind the calls is not given here.
# Experiments:
# [1] = biological target: cGMP-dependent 3',5'-cyclic phosphodiesterase (Homo sapiens) (UniProt O00408); test: Inhibition of human recombinant PDE2A using cAMP as substrate at 10 uM after 30 mins by HTRF method
# Rattus norvegicus [2] = test: Antipsychotic activity in Sprague-Dawley rat conditioned avoidance response model assessed as escape at 10 mg/kg, po measured after 2 hrs relative to vehicle-treated control; type: functional, organism-based; design: dose 10 mg/kg
# Rattus norvegicus [3] = test: Antipsychotic activity in Sprague-Dawley rat psychosis model assessed as reversal of MK-801-induced stereotypy at 10 mg/kg, po administered 2 hrs prior to MK-801 challenge measured every 5 mins for 1 hr starting 15 mins post MK-801 injection relative to vehicle-treated control; type: functional
# [4] = biological target: cGMP-specific 3',5'-cyclic phosphodiesterase (Homo sapiens) (UniProt O76074); test: Inhibition of human recombinant PDE5A using […] as substrate at 1 uM after 30 mins by scintillation proximity assay
# [5] = Oral bioavailability in Swiss albino mouse at 10 mg/kg […]; type: ADME, organism-based; conditions: in vivo
# Rattus norvegicus [6] = test: Antipsychotic activity in Sprague-Dawley rat psychosis model assessed as reversal of MK-801-induced stereotypy at 3 mg/kg, po administered 2 hrs prior to MK-801 challenge measured every 5 mins for 1 hr starting 15 mins post MK-801 injection relative to vehicle-treated control; type: functional
# Rattus norvegicus [7] = test: Antipsychotic activity in po dosed Sprague-Dawley rat prepulse inhibition deficit model assessed as reversal of MK-801-induced effect administered 110 mins prior to MK-801 challenge relative to vehicle-treated control; type: functional
# [8] = Metabolic stability in CD1 mouse liver microsomes incubated for 10 mins prior to NADPH addition measured after 60 mins by LC/MS/MS analysis; type: ADME; conditions: read-out: Stability
# [9] = Metabolic stability in cynomolgus monkey liver microsomes incubated for 10 mins prior to NADPH addition measured after 60 mins by LC/MS/MS analysis; type: ADME, Macaca fascicularis; conditions: read-out: Stability
# [10] = AUC (0 to t) in Swiss albino mouse at 10 mg/kg, po; type: ADME, organism-based; design: dose 10 mg/kg, route oral; conditions: plasma
# Rattus norvegicus [11] = test: Antipsychotic activity in po dosed Sprague-Dawley rat conditioned avoidance response model assessed as avoidance of shock measured after 2 hrs relative to vehicle-treated control; type: functional
# Rattus norvegicus [12] = test: Antipsychotic activity in Sprague-Dawley rat prepulse inhibition deficit model assessed as reversal of MK-801-induced effect at 1 mg/kg, po administered 110 mins prior to MK-801 challenge relative to vehicle-treated control; type: functional; design: scale not given: the % may be the effect or the level left
# [13] = biological target: 3',5'-cyclic-AMP phosphodiesterase 4D (Homo sapiens) (UniProt Q08499); test: Inhibition of human recombinant PDE4D using [3H]-cAMP as substrate at 1 uM after 30 mins by two-step radiometric assay
# Sequence of 3',5'-cyclic-AMP phosphodiesterase 4D (Homo sapiens) (Q08499 whole entry): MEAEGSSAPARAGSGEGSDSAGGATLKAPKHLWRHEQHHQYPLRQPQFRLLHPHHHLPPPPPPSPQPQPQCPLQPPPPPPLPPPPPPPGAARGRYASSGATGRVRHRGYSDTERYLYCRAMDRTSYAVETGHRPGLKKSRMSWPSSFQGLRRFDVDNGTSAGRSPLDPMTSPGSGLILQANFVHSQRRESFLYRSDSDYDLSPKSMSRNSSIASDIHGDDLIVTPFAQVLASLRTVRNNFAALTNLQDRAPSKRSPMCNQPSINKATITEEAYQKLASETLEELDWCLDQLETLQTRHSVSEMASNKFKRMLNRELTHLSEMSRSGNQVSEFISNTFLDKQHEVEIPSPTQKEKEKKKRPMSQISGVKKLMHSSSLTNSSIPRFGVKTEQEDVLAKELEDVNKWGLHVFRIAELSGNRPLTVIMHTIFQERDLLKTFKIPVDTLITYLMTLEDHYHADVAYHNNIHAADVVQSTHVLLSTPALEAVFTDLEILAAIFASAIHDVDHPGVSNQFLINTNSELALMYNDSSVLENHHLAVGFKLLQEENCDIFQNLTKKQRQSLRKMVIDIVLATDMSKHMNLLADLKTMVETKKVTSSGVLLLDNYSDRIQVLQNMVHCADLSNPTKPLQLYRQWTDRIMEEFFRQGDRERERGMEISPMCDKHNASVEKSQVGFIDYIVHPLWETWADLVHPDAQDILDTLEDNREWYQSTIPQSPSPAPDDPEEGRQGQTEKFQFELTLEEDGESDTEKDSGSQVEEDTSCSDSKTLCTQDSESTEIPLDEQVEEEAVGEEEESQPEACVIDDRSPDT
# [14] = Half life in Swiss albino mouse at 10 mg/kg, po; type: ADME, organism-based; design: dose 10 mg/kg, route oral; conditions: in vivo
# Brain = test: Free drug level in Sprague-Dawley rat brain at 10 mg/kg, po after 1 hr by LC/MS/MS analysis; type: ADME, organism-based; design: dose 10 mg/kg, route oral; conditions: in vivo
# [15] = biological target: T1, cAMP and cAMP-inhibited cGMP 3',5'-cyclic phosphodiesterase 10A (Mus musculus, UniProt Q8CA95); test: Inhibition of mouse recombinant GST-tagged PDE10A using [3H]-cAMP as substrate after 30 mins by scintillation proximity assay
# T1 sequence (Q8CA95 whole entry): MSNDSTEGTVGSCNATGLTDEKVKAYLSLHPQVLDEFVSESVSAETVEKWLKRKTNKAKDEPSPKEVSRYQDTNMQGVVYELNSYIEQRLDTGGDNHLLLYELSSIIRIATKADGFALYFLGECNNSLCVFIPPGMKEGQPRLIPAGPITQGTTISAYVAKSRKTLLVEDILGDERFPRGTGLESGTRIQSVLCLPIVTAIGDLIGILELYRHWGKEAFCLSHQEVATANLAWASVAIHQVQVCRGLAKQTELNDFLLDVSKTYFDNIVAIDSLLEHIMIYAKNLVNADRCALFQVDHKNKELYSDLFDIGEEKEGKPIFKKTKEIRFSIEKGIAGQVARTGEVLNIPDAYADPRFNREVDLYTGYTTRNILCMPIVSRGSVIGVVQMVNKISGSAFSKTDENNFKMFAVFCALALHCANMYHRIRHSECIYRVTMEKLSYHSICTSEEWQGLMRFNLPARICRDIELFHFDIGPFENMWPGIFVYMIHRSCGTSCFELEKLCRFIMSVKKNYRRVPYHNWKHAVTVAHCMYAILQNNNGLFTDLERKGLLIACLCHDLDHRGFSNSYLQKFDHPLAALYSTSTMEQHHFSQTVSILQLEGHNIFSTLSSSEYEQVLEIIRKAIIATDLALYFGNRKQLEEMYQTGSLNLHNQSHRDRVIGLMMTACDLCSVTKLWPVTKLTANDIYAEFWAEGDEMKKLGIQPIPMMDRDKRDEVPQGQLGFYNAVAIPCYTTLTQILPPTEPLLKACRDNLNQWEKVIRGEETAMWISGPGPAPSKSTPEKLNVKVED
# Rattus norvegicus [16] = test: Antipsychotic activity in Sprague-Dawley rat psychosis model assessed as reversal of MK-801-induced locomotion at 3 mg/kg, po administered 2 hrs prior to MK-801 challenge measured every 5 mins for 1 hr starting 15 mins post MK-801 injection relative to vehicle-treated control; type: functional
# [17] = Half life in Sprague-Dawley rat at 10 mg/kg, po; type: ADME, organism-based; design: dose 10 mg/kg, route oral; conditions: in vivo
# [18] = Metabolic stability in Beagle dog liver microsomes incubated for 10 mins prior to NADPH addition measured after 60 mins by LC/MS/MS analysis; type: ADME, Canis lupus familiaris; conditions: read-out: Stability
# [19] = biological target: cGMP-dependent 3',5'-cyclic phosphodiesterase (Homo sapiens) (UniProt O00408); test: Inhibition of human recombinant PDE2A using cAMP as substrate at 1 uM after 30 mins by HTRF method
# Rattus norvegicus [20] = test: Antipsychotic activity in Sprague-Dawley rat psychosis model assessed as reversal of MK-801-induced locomotion at 10 mg/kg, po administered 2 hrs prior to MK-801 challenge measured every 5 mins for 1 hr starting 15 mins post MK-801 injection relative to vehicle-treated control; type: functional
# [21] = biological target: 3',5'-cyclic-AMP phosphodiesterase 4D (Homo sapiens) (UniProt Q08499); test: Inhibition of human recombinant PDE4D using [3H]-cAMP as substrate at 10 uM after 30 mins by two-step radiometric assay
# [22] = biological target: High affinity 3',5'-cyclic-AMP phosphodiesterase 7A (Homo sapiens) (UniProt Q13946); test: Inhibition of human recombinant PDE7A using [3H]-cAMP as substrate at 1 uM after 30 mins by two-step radiometric assay
# Sequence of High affinity 3',5'-cyclic-AMP phosphodiesterase 7A (Homo sapiens) (Q13946 whole entry): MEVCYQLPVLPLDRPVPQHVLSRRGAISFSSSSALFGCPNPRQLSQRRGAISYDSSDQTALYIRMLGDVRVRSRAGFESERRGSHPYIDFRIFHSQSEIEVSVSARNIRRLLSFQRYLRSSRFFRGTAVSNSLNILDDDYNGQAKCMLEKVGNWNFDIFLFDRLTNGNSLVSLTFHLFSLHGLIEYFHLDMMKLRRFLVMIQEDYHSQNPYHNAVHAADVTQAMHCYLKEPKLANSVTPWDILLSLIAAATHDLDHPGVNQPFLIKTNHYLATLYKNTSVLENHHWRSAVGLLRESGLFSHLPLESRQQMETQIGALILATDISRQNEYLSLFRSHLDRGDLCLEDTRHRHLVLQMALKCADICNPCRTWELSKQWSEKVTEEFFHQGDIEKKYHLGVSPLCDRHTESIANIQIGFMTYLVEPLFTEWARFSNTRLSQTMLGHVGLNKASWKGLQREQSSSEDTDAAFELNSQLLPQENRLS
# [23] = biological target: cGMP-specific 3',5'-cyclic phosphodiesterase (Homo sapiens) (UniProt O76074); test: Inhibition of human recombinant PDE5A using […] as substrate at 10 uM after 30 mins by scintillation proximity assay
# [24] = biological target: Dual 3',5'-cyclic-AMP and -GMP phosphodiesterase 11A (Homo sapiens) (UniProt Q9HCR9); test: Inhibition of human recombinant PDE11A using [3H]-cAMP as substrate at 10 uM after 30 mins by two-step radiometric assay
# Sequence of Dual 3',5'-cyclic-AMP and -GMP phosphodiesterase 11A (Homo sapiens) (Q9HCR9 whole entry, looked up): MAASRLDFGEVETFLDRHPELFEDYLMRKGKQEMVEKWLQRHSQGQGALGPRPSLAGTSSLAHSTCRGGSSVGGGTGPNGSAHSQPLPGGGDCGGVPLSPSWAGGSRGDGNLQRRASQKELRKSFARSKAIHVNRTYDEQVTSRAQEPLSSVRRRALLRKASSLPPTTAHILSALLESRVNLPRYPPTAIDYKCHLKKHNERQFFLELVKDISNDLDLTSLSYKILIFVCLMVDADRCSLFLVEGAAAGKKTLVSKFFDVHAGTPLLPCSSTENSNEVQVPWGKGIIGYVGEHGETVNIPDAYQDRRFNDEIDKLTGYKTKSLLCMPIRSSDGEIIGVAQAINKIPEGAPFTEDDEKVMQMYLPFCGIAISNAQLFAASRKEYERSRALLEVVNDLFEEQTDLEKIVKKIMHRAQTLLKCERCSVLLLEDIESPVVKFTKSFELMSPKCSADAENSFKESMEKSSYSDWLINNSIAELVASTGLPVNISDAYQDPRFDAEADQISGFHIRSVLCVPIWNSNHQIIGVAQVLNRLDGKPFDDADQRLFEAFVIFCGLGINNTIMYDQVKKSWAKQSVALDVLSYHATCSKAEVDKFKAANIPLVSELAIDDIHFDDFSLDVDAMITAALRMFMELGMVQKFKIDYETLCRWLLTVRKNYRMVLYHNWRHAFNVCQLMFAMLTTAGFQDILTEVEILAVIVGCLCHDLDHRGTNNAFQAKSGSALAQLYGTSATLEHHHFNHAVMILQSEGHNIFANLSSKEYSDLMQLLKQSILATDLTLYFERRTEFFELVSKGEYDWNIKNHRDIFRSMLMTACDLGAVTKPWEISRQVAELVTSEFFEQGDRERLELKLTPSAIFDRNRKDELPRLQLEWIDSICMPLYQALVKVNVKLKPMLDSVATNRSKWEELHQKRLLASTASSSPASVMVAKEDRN
# Rattus norvegicus [25] = test: Antipsychotic activity in Sprague-Dawley rat conditioned avoidance response model assessed as avoidance of shock at 1 mg/kg, po measured after 2 hrs relative to vehicle-treated control; type: functional
# Rattus norvegicus [26] = test: Antipsychotic activity in Sprague-Dawley rat conditioned avoidance response model assessed as response failure at 10 mg/kg, po measured after 2 hrs relative to vehicle-treated control; type: functional, organism-based; design: dose 10 mg/kg
# Sequence of cGMP-dependent 3',5'-cyclic phosphodiesterase (Homo sapiens) (O00408 whole entry): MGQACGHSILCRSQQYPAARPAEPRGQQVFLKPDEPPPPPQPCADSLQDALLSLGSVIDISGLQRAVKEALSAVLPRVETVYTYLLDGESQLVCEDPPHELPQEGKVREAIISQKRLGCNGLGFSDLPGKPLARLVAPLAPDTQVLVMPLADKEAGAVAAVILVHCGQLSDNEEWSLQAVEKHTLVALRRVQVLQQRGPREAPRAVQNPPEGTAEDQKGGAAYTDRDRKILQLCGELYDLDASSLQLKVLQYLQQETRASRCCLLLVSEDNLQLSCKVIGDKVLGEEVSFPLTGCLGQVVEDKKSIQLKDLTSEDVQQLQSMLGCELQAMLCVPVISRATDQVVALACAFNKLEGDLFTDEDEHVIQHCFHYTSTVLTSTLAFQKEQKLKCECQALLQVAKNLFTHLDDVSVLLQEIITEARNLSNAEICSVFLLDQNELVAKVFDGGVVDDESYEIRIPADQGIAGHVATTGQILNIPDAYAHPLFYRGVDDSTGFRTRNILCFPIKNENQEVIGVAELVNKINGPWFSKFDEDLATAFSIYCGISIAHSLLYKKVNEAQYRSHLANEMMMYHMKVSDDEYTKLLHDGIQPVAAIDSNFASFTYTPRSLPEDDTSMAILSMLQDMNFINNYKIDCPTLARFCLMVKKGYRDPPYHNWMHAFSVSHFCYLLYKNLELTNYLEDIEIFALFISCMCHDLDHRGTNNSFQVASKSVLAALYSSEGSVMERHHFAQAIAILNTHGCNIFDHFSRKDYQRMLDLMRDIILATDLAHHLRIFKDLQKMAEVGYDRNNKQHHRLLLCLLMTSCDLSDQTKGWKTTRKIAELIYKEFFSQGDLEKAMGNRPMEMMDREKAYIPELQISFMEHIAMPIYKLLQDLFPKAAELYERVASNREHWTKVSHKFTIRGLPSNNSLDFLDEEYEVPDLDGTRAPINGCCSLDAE
compound,measurement,setting,value
Cn1cc(-c2ccc(Oc3nccnc3-c3ccncc3)cc2)c2ncccc21,inhibition,[1],42.4%
same,Activity,Rattus norvegicus [2],Active
same,Activity,Rattus norvegicus [3],99%
same,inhibition,[4],0.8%
same,bioavailability,[5],8%
same,Activity,Rattus norvegicus [6],96%
same,Activity,Rattus norvegicus [7],Dose-dependent effect
same,ED50,Rattus norvegicus [7],1.47 mg/kg
same,remaining at 1 h,[8],46.2%
same,remaining at 1 h,[9],70.5%
same,AUC(0-t),[10],31600 ng·h/mL
same,Activity,Rattus norvegicus [11],Dose-dependent effect
same,ED50,Rattus norvegicus [11],2.08 mg/kg
same,Activity,Rattus norvegicus [12],43%
same,inhibition,[13],0%
same,half-life,[14],10.4 h
same,Drug uptake(free),Brain,5 nM
same,IC50,[15],0.0117 µM
same,Activity,Rattus norvegicus [16],74%
same,half-life,[17],4.4 h
same,remaining at 1 h,[18],65.8%
same,inhibition,[19],3.3%
same,Activity,Rattus norvegicus [20],90%
same,inhibition,[21],33.8%
same,inhibition,[22],2.5%
same,inhibition,[23],21.6%
same,inhibition,[24],11.2%
same,Activity,Rattus norvegicus [25],17%
same,Activity,Rattus norvegicus [26],Active

# Source: ChEMBL document CHEMBL3352660, “Design, synthesis and pharmacological evaluation of novel polycyclic heteroarene ethers as PDE10A inhibitors: part II” (Bioorg Med Chem Lett, 2014)
